According to the supplement of paper PMC10307832:

Columns and labels:
Test in all cases: relative viability (nuclei count vs DMSO), 5 days (fraction); higher = more cells survive
GW-2580 = compound: COC1=CC=C(C=C1)COC2=C(C=C(C=C2)CC3=CN=C(N=C3N)N)OC [GW-2580]
Summary of the method: (§1)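 A plate was accepted only when its control CV was below 25% and the cells had doubled at least once. Viability is defined from nuclear counts as treated wells divided by vehicle wells, with the median taken across plates. That median covers lung cancer cell lines grown in 1536-well plates, dosed by pinning at five √10-spaced library-drug concentrations, and counted in MetaXpress from 4× Hoechst images after 5 days.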

Fedratinib = compound: Cc1cnc(Nc2ccc(OCCN3CCCC3)cc2)nc1Nc1cccc(S(=O)(=O)NC(C)(C)C)c1 [Fedratinib]
Summary of the method: as §1

GW-2580 + Luminespib = compound: COC1=CC=C(C=C1)COC2=C(C=C(C=C2)CC3=CN=C(N=C3N)N)OC [GW-2580] + CCNC(=O)c1noc(-c2cc(C(C)C)c(O)cc2O)c1-c1ccc(CN2CCOCC2)cc1 [Luminespib] (partner 0.01 µM)
Summary of the method: (§2)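 Five library-drug doses in √10 steps were combined with a fixed anchor-drug dose, or a single drug was given alone, by pin tool to lung cancer cell lines in 1536-well plates the day after seeding. Nuclei were stained and counted after 5 days. Relative viability is the nuclei count in treated wells over that in vehicle wells, taken as the median of duplicate plates.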

GW-2580 + Foretinib = compound: COC1=CC=C(C=C1)COC2=C(C=C(C=C2)CC3=CN=C(N=C3N)N)OC [GW-2580] + COc1cc2c(Oc3ccc(NC(=O)C4(C(=O)Nc5ccc(F)cc5)CC4)cc3F)ccnc2cc1OCCCN1CCOCC1 [Foretinib] (partner 0.25 µM)
Summary of the method: as §2

GW-2580 + OSI-027 = compound: COC1=CC=C(C=C1)COC2=C(C=C(C=C2)CC3=CN=C(N=C3N)N)OC [GW-2580] + COc1cccc2cc(-c3nc([C@H]4CC[C@H](C(=O)O)CC4)n4ncnc(N)c34)[nH]c12 [OSI-027] (partner 0.5 µM)
Summary of the method: as §2

GW-2580 + Tozasertib = compound: COC1=CC=C(C=C1)COC2=C(C=C(C=C2)CC3=CN=C(N=C3N)N)OC [GW-2580] + Cc1cc(Nc2cc(N3CCN(C)CC3)nc(Sc3ccc(NC(=O)C4CC4)cc3)n2)n[nH]1 [Tozasertib] (partner 0.1 µM)
Summary of the method: as §2

GW-2580 + Dasatinib = compound: COC1=CC=C(C=C1)COC2=C(C=C(C=C2)CC3=CN=C(N=C3N)N)OC [GW-2580] + Cc1nc(Nc2ncc(C(=O)Nc3c(C)cccc3Cl)s2)cc(N2CCN(CCO)CC2)n1 [Dasatinib] (partner 0.075 µM)
Summary of the method: as §2

GW-2580 + Phenformin = compound: COC1=CC=C(C=C1)COC2=C(C=C(C=C2)CC3=CN=C(N=C3N)N)OC [GW-2580] + N=C(N)NC(=N)NCCc1ccccc1 [Phenformin] (partner 250 µM)
Summary of the method: as §2

Fedratinib + Luminespib = compound: Cc1cnc(Nc2ccc(OCCN3CCCC3)cc2)nc1Nc1cccc(S(=O)(=O)NC(C)(C)C)c1 [Fedratinib] + CCNC(=O)c1noc(-c2cc(C(C)C)c(O)cc2O)c1-c1ccc(CN2CCOCC2)cc1 [Luminespib] (partner 0.01 µM)
Summary of the method: as §2

Fedratinib + Foretinib = compound: Cc1cnc(Nc2ccc(OCCN3CCCC3)cc2)nc1Nc1cccc(S(=O)(=O)NC(C)(C)C)c1 [Fedratinib] + COc1cc2c(Oc3ccc(NC(=O)C4(C(=O)Nc5ccc(F)cc5)CC4)cc3F)ccnc2cc1OCCCN1CCOCC1 [Foretinib] (partner 0.25 µM)
Summary of the method: as §2

Fedratinib + OSI-027 = compound: Cc1cnc(Nc2ccc(OCCN3CCCC3)cc2)nc1Nc1cccc(S(=O)(=O)NC(C)(C)C)c1 [Fedratinib] + COc1cccc2cc(-c3nc([C@H]4CC[C@H](C(=O)O)CC4)n4ncnc(N)c34)[nH]c12 [OSI-027] (partner 0.5 µM)
Summary of the method: as §2

Fedratinib + Tozasertib = compound: Cc1cnc(Nc2ccc(OCCN3CCCC3)cc2)nc1Nc1cccc(S(=O)(=O)NC(C)(C)C)c1 [Fedratinib] + Cc1cc(Nc2cc(N3CCN(C)CC3)nc(Sc3ccc(NC(=O)C4CC4)cc3)n2)n[nH]1 [Tozasertib] (partner 0.1 µM)
Summary of the method: as §2

Fedratinib + Dasatinib = compound: Cc1cnc(Nc2ccc(OCCN3CCCC3)cc2)nc1Nc1cccc(S(=O)(=O)NC(C)(C)C)c1 [Fedratinib] + Cc1nc(Nc2ncc(C(=O)Nc3c(C)cccc3Cl)s2)cc(N2CCN(CCO)CC2)n1 [Dasatinib] (partner 0.075 µM)
Summary of the method: as §2

Fedratinib + Phenformin = compound: Cc1cnc(Nc2ccc(OCCN3CCCC3)cc2)nc1Nc1cccc(S(=O)(=O)NC(C)(C)C)c1 [Fedratinib] + N=C(N)NC(=N)NCCc1ccccc1 [Phenformin] (partner 250 µM)
Summary of the method: as §2

NCI-H1623
relative viability (GW-2580; 0.08 µM): 0.947 | relative viability (GW-2580; 0.8 µM): 0.998 | relative viability (GW-2580; 2.53 µM): 0.828 | relative viability (GW-2580; 8 µM): 0.96 | relative viability (Fedratinib; 0.1 µM): 1.04 | relative viability (Fedratinib; 0.3162 µM): 0.987 | relative viability (Fedratinib; 1 µM): 0.935 | relative viability (GW-2580 + Luminespib; first compound 0.08 µM): 0.382 | relative viability (GW-2580 + Luminespib; first compound 0.8 µM): 0.43 | relative viability (GW-2580 + Luminespib; first compound 2.53 µM): 0.482 | relative viability (GW-2580 + Luminespib; first compound 8 µM): 0.471 | relative viability (GW-2580 + Foretinib; first compound 0.08 µM): 0.866 | relative viability (GW-2580 + Foretinib; first compound 0.8 µM): 1.01 | relative viability (GW-2580 + Foretinib; first compound 2.53 µM): 0.725 | relative viability (GW-2580 + Foretinib; first compound 8 µM): 0.986 | relative viability (GW-2580 + OSI-027; first compound 0.08 µM): 0.4 | relative viability (GW-2580 + OSI-027; first compound 0.8 µM): 0.475 | relative viability (GW-2580 + OSI-027; first compound 2.53 µM): 0.393 | relative viability (GW-2580 + OSI-027; first compound 8 µM): 0.428 | relative viability (GW-2580 + Tozasertib; first compound 0.08 µM): 0.631 | relative viability (GW-2580 + Tozasertib; first compound 0.8 µM): 0.416 | relative viability (GW-2580 + Tozasertib; first compound 2.53 µM): 0.594 | relative viability (GW-2580 + Tozasertib; first compound 8 µM): 0.486 | relative viability (GW-2580 + Dasatinib; first compound 0.08 µM): 0.46 | relative viability (GW-2580 + Dasatinib; first compound 0.8 µM): 0.645 | relative viability (GW-2580 + Dasatinib; first compound 2.53 µM): 0.447 | relative viability (GW-2580 + Dasatinib; first compound 8 µM): 0.583 | relative viability (GW-2580 + Phenformin; first compound 0.08 µM): 0.566 | relative viability (GW-2580 + Phenformin; first compound 0.8 µM): 0.587 | relative viability (GW-2580 + Phenformin; first compound 2.53 µM): 0.463 | relative viability (GW-2580 + Phenformin; first compound 8 µM): 0.566 | relative viability (Fedratinib + Luminespib; first compound 0.1 µM): 0.703 | relative viability (Fedratinib + Luminespib; first compound 0.3162 µM): 0.485 | relative viability (Fedratinib + Luminespib; first compound 1 µM): 0.505 | relative viability (Fedratinib + Foretinib; first compound 0.1 µM): 0.839 | relative viability (Fedratinib + Foretinib; first compound 0.3162 µM): 0.876 | relative viability (Fedratinib + Foretinib; first compound 1 µM): 0.817 | relative viability (Fedratinib + OSI-027; first compound 0.1 µM): 0.438 | relative viability (Fedratinib + OSI-027; first compound 0.3162 µM): 0.48 | relative viability (Fedratinib + OSI-027; first compound 1 µM): 0.38 | relative viability (Fedratinib + Tozasertib; first compound 0.1 µM): 0.414 | relative viability (Fedratinib + Tozasertib; first compound 0.3162 µM): 0.486 | relative viability (Fedratinib + Tozasertib; first compound 1 µM): 0.397 | relative viability (Fedratinib + Dasatinib; first compound 0.1 µM): 0.339 | relative viability (Fedratinib + Dasatinib; first compound 0.3162 µM): 0.45 | relative viability (Fedratinib + Dasatinib; first compound 1 µM): 0.408 | relative viability (Fedratinib + Phenformin; first compound 0.1 µM): 0.474 | relative viability (Fedratinib + Phenformin; first compound 0.3162 µM): 0.59 | relative viability (Fedratinib + Phenformin; first compound 1 µM): 0.551
